The results in this text go back to US11472842B2 (Protagonist Therapeutics, Inc., priority 2015, dated 2022).

Starred links: 1 amine or outer side, 2 acyl side, 3 side chain; linkers in the order of their positions; H or OH if unused. Positions of bridges follow the written chain, without caps; N, C: chain ends. Residues, ends and D or L forms follow the SMILES beside them. Groups on a side chain read outwards from the residue. *: point of attachment. γGlu = O=C(O)[C@H](CCC(=O)[*:2])N[*:1]; Palmitoyl = CCCCCCCCCCCCCCCC(=O)*; Isovaleryl = CC(C)CC(=O)*

In this assay the target is T1, human ferroportin (Homo sapiens, UniProt Q9NP59).
T1 construct: expressed in transfected cells
T1 sequence (Q9NP59 1-571): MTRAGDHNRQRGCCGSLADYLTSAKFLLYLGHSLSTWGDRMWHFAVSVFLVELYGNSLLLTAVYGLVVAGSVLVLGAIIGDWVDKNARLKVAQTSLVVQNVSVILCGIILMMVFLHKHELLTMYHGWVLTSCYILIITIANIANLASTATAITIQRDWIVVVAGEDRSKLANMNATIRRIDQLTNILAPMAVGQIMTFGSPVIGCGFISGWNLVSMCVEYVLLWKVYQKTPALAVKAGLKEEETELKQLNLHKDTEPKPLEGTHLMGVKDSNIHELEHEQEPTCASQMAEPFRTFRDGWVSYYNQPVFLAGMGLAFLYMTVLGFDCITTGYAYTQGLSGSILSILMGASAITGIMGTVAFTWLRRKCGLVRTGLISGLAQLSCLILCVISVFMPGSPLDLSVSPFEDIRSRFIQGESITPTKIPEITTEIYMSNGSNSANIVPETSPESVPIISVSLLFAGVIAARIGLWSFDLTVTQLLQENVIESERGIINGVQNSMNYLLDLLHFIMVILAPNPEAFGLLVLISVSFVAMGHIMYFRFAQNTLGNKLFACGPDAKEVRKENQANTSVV
Put plainly: Ferroportin internalization / degradation, HEK-GFP cell based assay (HEK293 cells stably expressing ferroportin-GFP, decrease in GFP fluorescence). Particulars: Table 3 monomer analogues; ferroportin-GFP HEK293 cells, 18-24 h incubation; read-out: HEK-GFP cell based assay (potency EC50). As for the experimental part: Peptide analogues were tested in vitro for induction of internalization of the human ferroportin protein. Following internalization, the […] are degraded. The assay measures a decrease in fluorescence of the receptor.
The cDNA encoding the human ferroportin (SLC40A1) was cloned from a cDNA clone from Origene (NM_014585). The DNA encoding the ferroportin was amplified by PCR using primers also encoding terminal restriction sites for subcloning, but without the termination codon. The ferroportin receptor was subcloned into a mammalian GFP expression vector containing a neomycin (G418) resistance marker in such that the reading frame of the ferroportin was fused in frame with the GFP protein. The fidelity of the DNA encoding the protein was confirmed by DNA sequencing. HEK293 cells were used for transfection of the ferroportin-GFP receptor expression plasmid. The cells were grown according to standard protocol in growth medium and transfected with the plasmids using Lipofectamine (manufacturer's protocol, Invitrogen). […] The cells were propagated and frozen in aliquots.
Compound was added to desired final concentration for at least 18 hours in the incubator. […] Compound was added to desired final concentration for at least 18 hours but no more than 24 hours in the incubator.
The EC50 of these reference compounds for ferroportin degradation was determined according to the activity assay described above. These peptides served as control standards.
These values were determined as described herein.
For `CCCCCCCCCCCCCCCC(=O)N[C@@H](CCC(=O)NCCCC[C@@H]1NC(=O)[C@H](Cc2ccccc2)NC(=O)[C@H](CCCCN)NC(=O)[C@H]([C@@H](C)CC)NC(=O)[C@@H](NC(=O)[C@@H]2CCCN2C(=O)[C@H](Cc2ccccc2)NC(=O)[C@H](Cc2c[nH]cn2)NC(=O)[C@@H](NC(=O)[C@H](CC(=O)O)NC(=O)CC(C)C)[C@@H](C)O)C(C)(C)SSC(C)(C)[C@@H](C(=O)N[C@@H](CCCCN)C(N)=O)NC(=O)CNC(=O)[C@H](CCCCN)NC(=O)[C@H](CO)NC(=O)[C@H](CCCNC(=N)N)NC(=O)[C@@H]2CCCN2C1=O)C(=O)O` [Compound 3, Isovaleric acid-DTHFP-[Pen]-IKF-[Lys(IsoGlu-Palm)]-PRSKG-[Pen]-K-NH2], the DC50 was determined as 418 nM.

With `CCCCCCCCCCCCCCCC(=O)N[C@@H](CCC(=O)NCCCC[C@@H]1NC(=O)[C@H](Cc2ccccc2)NC(=O)[C@H](CCCCN)NC(=O)[C@H]([C@@H](C)CC)NC(=O)[C@@H](NC(=O)[C@@H]2CCCN2C(=O)[C@H](Cc2ccccc2)NC(=O)[C@H](Cc2c[nH]cn2)NC(=O)[C@@H](NC(=O)[C@H](CC(=O)O)NC(=O)CC(C)C)[C@@H](C)O)C(C)(C)SSC[C@@H](C(=O)N[C@@H](CCCCN)C(N)=O)NC(=O)CNC(=O)[C@H](CCCCN)NC(=O)[C@H](CO)NC(=O)[C@H](CCCNC(=N)N)NC(=O)[C@@H]2CCCN2C1=O)C(=O)O` [Compound 4, Isovaleric acid-DTHFP-[Pen]-IKF-[Lys(IsoGlu-Palm)]-PRSKGCK-NH2], the DC50 was determined as 68 nM.

For the molecule `CCCCCCCCCCCCCCCC(=O)N[C@@H](CCC(=O)NCCCC[C@@H]1NC(=O)[C@H](Cc2ccccc2)NC(=O)[C@H](CCCCN)NC(=O)[C@H]([C@@H](C)CC)NC(=O)[C@@H](NC(=O)[C@@H]2CCCN2C(=O)[C@H](Cc2ccccc2)NC(=O)[C@H](Cc2c[nH]cn2)NC(=O)[C@@H](NC(=O)[C@H](CC(=O)O)NC(=O)CC(C)C)[C@@H](C)O)CSSC(C)(C)[C@@H](C(=O)N[C@@H](CCCCN)C(N)=O)NC(=O)CNC(=O)[C@H](CCCCN)NC(=O)[C@H](CO)NC(=O)[C@H](CCCNC(=N)N)NC(=O)[C@@H]2CCCN2C1=O)C(=O)O` [Compound 5], the DC50 is 13 nM.

Take `CCCCCCCCCCCCCCCC(=O)N[C@@H](CCC(=O)NCCCC[C@@H]1NC(=O)[C@H](Cc2ccccc2)NC(=O)[C@H](CCCCN)NC(=O)[C@H]([C@@H](C)CC)NC(=O)[C@@H](NC(=O)[C@@H]2CCCN2C(=O)[C@H](Cc2ccccc2)NC(=O)[C@H](Cc2c[nH]cn2)NC(=O)[C@@H](NC(=O)[C@H](CC(=O)O)NC(=O)CC(C)C)[C@@H](C)O)CSSC[C@@H](C(=O)N[C@@H](CCCCN)C(N)=O)NC(=O)CN(C)C(=O)[C@H](CCCCN)NC(=O)[C@H](CO)NC(=O)[C@H](CCCNC(=N)N)NC(=O)[C@@H]2CCCN2C1=O)C(=O)O` [Compound 6]: the DC50 was determined as 11 nM.

With `CCCCCCCCCCCCCCCC(=O)N[C@@H](CCC(=O)NCCCC[C@@H]1NC(=O)[C@H](Cc2ccccc2)NC(=O)[C@H](CCCCN)NC(=O)[C@H]([C@@H](C)CC)NC(=O)[C@@H](NC(=O)[C@@H]2CCCN2C(=O)[C@@H](NC(=O)[C@H](Cc2c[nH]cn2)NC(=O)[C@@H](NC(=O)[C@H](CC(=O)O)NC(=O)CC(C)C)[C@@H](C)O)C(c2ccccc2)c2ccccc2)CSSC[C@@H](C(=O)N[C@@H](CCCCN)C(N)=O)NC(=O)CNC(=O)[C@H](CCCCN)NC(=O)[C@H](CO)NC(=O)[C@H](CCCNC(=N)N)NC(=O)[C@@H]2CCCN2C1=O)C(=O)O` [Compound 7, Isovaleric acid-DTH-[Dpa]-PCIKF-[Lys(IsoGlu-Palm)]-PRSKGCK-NH2], the DC50 stood at 12 nM.

As for `CCCCCCCCCCCCCCCC(=O)N[C@@H](CCC(=O)NCCCC[C@@H]1NC(=O)[C@H](Cc2ccccc2)NC(=O)[C@H](CCCCN)NC(=O)[C@H]([C@@H](C)CC)NC(=O)[C@@H](NC(=O)[C@@H]2CCCN2C(=O)[C@@H](NC(=O)[C@H](Cc2c[nH]cn2)NC(=O)[C@@H](NC(=O)[C@H](CC(=O)O)NC(=O)CC(C)C)[C@@H](C)O)C(c2ccccc2)c2ccccc2)CSSC[C@@H](C(=O)N[C@@H](CCCCN)C(N)=O)NC(=O)CN(C)C(=O)[C@H](CCCCN)NC(=O)[C@H](CO)NC(=O)[C@H](CCCNC(=N)N)NC(=O)[C@@H]2CCCN2C1=O)C(=O)O` [Compound 8, Isovaleric acid-DTH-[Dpa]-PCIKF-[Lys(IsoGlu-Palm)]-PRSK-[Sar]-CK-NH2], the DC50 came out at 15 nM.

For the molecule `CCCCCCCCCCCCCCCC(=O)N[C@@H](CCC(=O)NCCCC[C@@H]1NC(=O)[C@H](Cc2ccccc2)NC(=O)[C@H](CCCCN)NC(=O)[C@H]([C@@H](C)CC)NC(=O)[C@@H](NC(=O)[C@@H]2CCCN2C(=O)[C@H](Cc2ccccc2)NC(=O)[C@H](Cc2c[nH]cn2)NC(=O)[C@@H](NC(=O)[C@H](CC(=O)O)NC(=O)CC(C)C)[C@@H](C)O)CSSC[C@@H](C(N)=O)NC(=O)CNC(=O)[C@H](CCCCN)NC(=O)[C@H](CO)NC(=O)[C@H](CCCNC(=N)N)NC(=O)[C@@H]2CCCN2C1=O)C(=O)O` [Compound 9], the DC50 came out at 11 nM.

As to `CCCCCCCCCCCCCCCC(=O)N[C@@H](CCC(=O)NCCCC[C@@H]1NC(=O)[C@H](Cc2ccccc2)NC(=O)[C@H](CCCCN)NC(=O)[C@H]([C@@H](C)CC)NC(=O)[C@@H](NC(=O)[C@@H]2CCCN2C(=O)[C@H](Cc2ccccc2)NC(=O)[C@H](Cc2c[nH]cn2)NC(=O)[C@@H](NC(=O)[C@H](CC(=O)O)NC(=O)CC(C)C)[C@@H](C)O)CSSC[C@@H](C(N)=O)NC(=O)CN(C)C(=O)[C@H](CCCCN)NC(=O)[C@H](CO)NC(=O)[C@H](CCCNC(=N)N)NC(=O)[C@@H]2CCCN2C1=O)C(=O)O` [Compound 10], the DC50 was found to be 10 nM.

On to `CCCCCCCCCCCCCCCC(=O)N[C@@H](CCC(=O)NCCCC[C@@H]1NC(=O)[C@H](Cc2ccccc2)NC(=O)[C@H](CCCCN)NC(=O)[C@H](CCCCN)NC(=O)[C@@H](NC(=O)[C@@H]2CCCN2C(=O)[C@H](Cc2ccccc2)NC(=O)[C@H](Cc2c[nH]cn2)NC(=O)[C@@H](NC(=O)[C@H](CC(=O)O)NC(=O)CC(C)C)[C@@H](C)O)CSSC[C@@H](C(=O)N[C@@H](CCCCN)C(N)=O)NC(=O)CNC(=O)[C@H](CCCCN)NC(=O)[C@H](CO)NC(=O)[C@H](CCCNC(=N)N)NC(=O)[C@@H]2CCCN2C1=O)C(=O)O` [Compound 11] (Isovaleryl-DTHFPCKKFK([γGlu-Palmitoyl])PRSKGCK-NH2; disulfide 6-16), for which the DC50 is 22 nM.

For the molecule `CCCCCCCCCCCC(=O)N[C@@H](CCC(=O)NCCCC[C@@H]1NC(=O)[C@H](Cc2ccccc2)NC(=O)[C@H](CCCCN)NC(=O)[C@H]([C@@H](C)CC)NC(=O)[C@@H](NC(=O)[C@@H]2CCCN2C(=O)[C@H](Cc2ccccc2)NC(=O)[C@H](Cc2c[nH]cn2)NC(=O)[C@@H](NC(=O)[C@H](CC(=O)O)NC(=O)CC(C)C)[C@@H](C)O)CSSC[C@@H](C(=O)N[C@@H](CCCCN)C(N)=O)NC(=O)CNC(=O)[C@H](CCCCN)NC(=O)[C@H](CO)NC(=O)[C@H](CCCNC(=N)N)NC(=O)[C@@H]2CCCN2C1=O)C(=O)O` [Compound 12], the DC50 worked out at 14 nM.

For the molecule `CCCCCCCCCCCCCC(=O)N[C@@H](CCC(=O)NCCCC[C@@H]1NC(=O)[C@H](Cc2ccccc2)NC(=O)[C@H](CCCCN)NC(=O)[C@H]([C@@H](C)CC)NC(=O)[C@@H](NC(=O)[C@@H]2CCCN2C(=O)[C@H](Cc2ccccc2)NC(=O)[C@H](Cc2c[nH]cn2)NC(=O)[C@@H](NC(=O)[C@H](CC(=O)O)NC(=O)CC(C)C)[C@@H](C)O)CSSC[C@@H](C(=O)N[C@@H](CCCCN)C(N)=O)NC(=O)CNC(=O)[C@H](CCCCN)NC(=O)[C@H](CO)NC(=O)[C@H](CCCNC(=N)N)NC(=O)[C@@H]2CCCN2C1=O)C(=O)O` [Compound 13], the DC50 turned out to be 10 nM.

Turning to `CC[C@H](C)[C@@H]1NC(=O)[C@@H](NC(=O)[C@@H]2CCCN2C(=O)[C@H](Cc2ccccc2)NC(=O)[C@H](Cc2c[nH]cn2)NC(=O)[C@@H](NC(=O)[C@H](CC(=O)O)NC(=O)CC(C)C)[C@@H](C)O)CSSC[C@@H](C(=O)N[C@@H](CCCCN)C(N)=O)NC(=O)CNC(=O)[C@H](CCCCN)NC(=O)[C@H](CO)NC(=O)[C@H](CCCNC(=N)N)NC(=O)[C@@H]2CCCN2C(=O)[C@H](CCCCNC(=O)CC[C@H](NC(=O)CCCC[C@@H]2SC[C@@H]3NC(=O)N[C@@H]32)C(=O)O)NC(=O)[C@H](Cc2ccccc2)NC(=O)[C@H](CCCCN)NC1=O` [Compound 14], the DC50 is 29 nM.
